What is called EC50 is the concentration giving half of the maximal effect. Higher therefore signals lower potency in that assay.

Bounds are passed on as bounds.

EC50 data for 27 compounds are collected here from BindingDB's records for doi:10.7270/Q2M043TQ (Nmmlsc, 2010).

One assay deals with T1, Regulator of G-protein signaling 8 (Homo sapiens, UniProt P57771).
T1 sequence (P57771 whole entry): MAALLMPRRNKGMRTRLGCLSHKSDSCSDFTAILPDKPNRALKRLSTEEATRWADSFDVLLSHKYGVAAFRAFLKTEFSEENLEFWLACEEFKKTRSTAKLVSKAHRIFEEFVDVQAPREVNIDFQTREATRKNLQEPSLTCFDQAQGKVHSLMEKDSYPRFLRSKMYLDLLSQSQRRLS
In words: RGS8-Galphao interaction modulators, SAR follow-up, biochemical, multiplex bead flow cytometry, SAR compounds (AID 2307).
Details: not given
In the case of `CN1CCN(C2=C(Cl)C(=O)C(c3cnc(N4CCCCC4)s3)=C(Cl)C2=O)CC1`, the 50% effective concentration (EC50) is 21 nM.

`CCN=c1scc(C)n1N=Cc1ccc(O)c(O)c1O` had an EC50 of 573 nM. This EC50 lies about 27-fold higher than the previous one.

As to `CCN(CC)S(=O)(=O)c1cccc(C(=O)NN=Cc2ccc(O)c(O)c2O)c1`, it took 411 nM to reach a half-maximal effect (EC50). With `Cc1[nH]n(-c2ccccc2)c(=S)c1C=NCCCN=Cc1c(C)[nH]n(-c2ccccc2)c1=S`, the 50% effective concentration (EC50) worked out at 522 nM.

On to `Cc1cccc(N2CCN(C(=O)COc3nsc4nc(C)cc(C)c34)CC2C)c1` (configuration not stated), for which the EC50 was 3180 nM.

`Cc1cccc(N2CCN(C(=O)Cn3ccc4nc(C)cc(C)c4c3=O)CC2C)c1` (configuration not stated) [2,4-dimethyl-6-[2-[3-methyl-4-(3-methylphenyl)piperazin-1-yl]-2-oxidanylidene-ethyl]-1,6-naphthyridin-5-one] gave an EC50 of over 30000 nM. Regarding `Cc1cc(C)c2c(=O)n(CC(=O)N3CCN(c4ccccc4)CC3)ccc2n1` [2,4-dimethyl-6-[2-oxidanylidene-2-(4-phenylpiperazin-1-yl)ethyl]-1,6-naphthyridin-5-one], the 50% effective concentration (EC50) was over 30000 nM. For `Cc1cc(C)c2c(n1)CCN(CC(=O)N1CCN(c3ccccc3)CC1)C2=O` [2,4-dimethyl-6-[2-oxidanylidene-2-(4-phenylpiperazin-1-yl)ethyl]-7,8-dihydro-1,6-naphthyridin-5-one], the EC50 was over 30000 nM. For the compound `O=c1c2ccccc2sn1-c1ccc(S(=O)(=O)N2CCCC2)cc1` [2-(4-pyrrolidin-1-ylsulfonylphenyl)-1,2-benzothiazol-3-one], the EC50 is 29 nM.

As to `Cc1cccc(N2CCN(C(=O)Cn3sc4nc(C)cc(C)c4c3=O)CC2C)c1` (configuration not stated) [2-[2-keto-2-[3-methyl-4-(m-tolyl)piperazino]ethyl]-4,6-dimethyl-isothiazolo[5,4-b]pyridin-3-one], the EC50 came out at 550 nM. Consider `Cc1cccc(N2CCN(C(=O)COc3noc4nc(C)cc(C)c34)CC2C)c1` (configuration not stated) [2-[(4,6-dimethyl-[1,2]oxazolo[5,4-b]pyridin-3-yl)oxy]-1-[3-methyl-4-(3-methylphenyl)piperazin-1-yl]ethanone], for which the EC50 was over 30000 nM. `O=c1c2ccccc2sn1-c1ccccc1` [2-phenyl-1,2-benzothiazol-3-one] gave an EC50 of over 30000 nM. Still for that read-out and setting: to `CCN(CC)S(=O)(=O)c1cccc(-c2n[nH]c(=S)n2N=Cc2ccc(C(=O)OC)cc2)c1` [4-[(E)-[3-[3-(diethylsulfamoyl)phenyl]-5-thioxo-1H-1,2,4-triazol-4-yl]iminomethyl]benzoic acid methyl ester] belongs 3130 nM. `NS(=O)(=O)c1ccc(N=NCc2ccc(O)c(O)c2O)c([N+](=O)[O-])c1` [4-[[(E)-(2,3-dihydroxy-4-oxo-1-cyclohexa-2,5-dienylidene)methyl]hydrazo]-3-nitrobenzenesulfonamide] registered a concentration giving a half-maximal response (EC50) of 29 nM. In turn, `CN=c1scc(C)n1N=Cc1ccc(O)c(O)c1O` [(4E)-2,3-dihydroxy-4-[[(4-methyl-2-methylimino-1,3-thiazol-3-yl)amino]methylidene]cyclohexa-2,5-dien-1-one] registered an EC50 of 318 nM. As for `Cc1[nH]n(-c2ccccc2)c(=S)c1/C=N/c1cccc([N+](=O)[O-])c1` [(4E)-5-methyl-4-[(3-nitroanilino)methylene]-2-phenyl-2-pyrazoline-3-thione], the EC50 turned out to be 218 nM.

`Cc1cccc(N2CCN(C(=O)CN3CCc4nc(C)cc(C)c4C3=O)CC2C)c1` (configuration not stated) [KUC103675N]: the EC50 is over 30000 nM. `CC(=O)OCCCNc1cc(Sc2nc3ccccc3s2)c2nonc2c1[N+](=O)[O-]` [MLS000521052] yielded an EC50 of 86 nM. `Cc1cc(Cl)ccc1/N=c1/ssnc1Cl` [MLS000539990] gave an EC50 of 127 nM. Still for that read-out and setting: to `O=C1C(Cl)=C(N2CCCCC2)C(=O)C(Cl)=C1c1cnc(N2CCCCC2)s1` [MLS000550549] belongs 78 nM; to `CCC(=O)NC(c1ccc(C)cc1)c1cc([N+](=O)[O-])c2cccnc2c1O` (configuration not stated) [MLS000553854], 4340 nM. `COc1ccc(C2=CC(=O)C=CC2=O)cc1` [MLS001029846] gave an EC50 of 177 nM. As to `O=C(COc1ccccc1C(=O)NN=Cc1ccc(O)c(O)c1)NN=Cc1ccc(O)c(O)c1` [N''-[(Z)-(3-hydroxy-4-oxo-1-cyclohexa-2,5-dienylidene)methyl]-2-[2-[[(Z)-(3-hydroxy-4-oxo-1-cyclohexa-2,5-dienylidene)methyl]hydrazo]-2-oxoethoxy]benzohydrazide], a half-maximal response (EC50) required 123 nM. This EC50 and that of the compound before are within 1.5-fold of each other.

On to `CC1(C)OC(=O)C(=Cc2ccc(-c3ccc(S(N)(=O)=O)cc3)o2)C(=O)O1` [SMR000273939], for which the EC50 was determined as 701 nM. The same measure, in the same setting: as for `O=C(Cc1csc(N2CCOCC2)n1)NN=Cc1ccc(O)c(O)c1O` [SMR000369439], the figure is 384 nM.

For the compound `Nc1c(C(=O)NCC2CCCO2)sc2nc3c(c(-c4ccco4)c12)CC/C3=C/c1ccco1` (configuration not stated) [UNM-0000305796], a half-maximal effect (EC50) was put at 489 nM. This EC50 and that of the compound before are within 1.5-fold of each other.

Staying with this assay, now noted: inactive by the depositor's call.
The compound `CCOc1ccccc1-c1c2cc(O)c(=O)cc-2oc2cc(O)c(O)cc12` [MLS000578271] registered an EC50 of 3680 nM.
